From patent US8492341B2, “Amyloid-β binding peptides” (Alzyme Pty Ltd., priority 2006, dated 2013)

Tests used:
M17 Neuroblastoma cells = test: MTS cell viability assay, cell death induced by human Aβ1-42 (40 μM); assay type: cell-based
Procedure: M17 Neuroblastoma cells were seeded in a 48 well plate at a density of 50,000 cells per well. The plate was incubated for 24 hours at 37° C. in media (OPTI-MEM) containing 10% FCS. The next day the cells were treated with human Aβ1-42 (40 μM) in the presence or absence of the peptides 15merTNP or peptide analogue MP2 (FIG. 2). The peptides were provided at concentrations ranging from 20-400 μM prepared in Neuro basal media containing B27 supplement without antioxidants. Following incubation (4 days at 37° C.), cell viability was assessed using the CellTiter 96® AQueous One Solution cell proliferation assay (MTS; Promega, Wis., USA) as per manufactures instructions. Briefly, 200 μl of MTS reagent (1/10 dilution) was added directly to the culture wells and the plate incubated for 3 hours at 37° C. Following incubation, 150 μl of the solution was transferred to a 96 well plate and the absorbance is determined spectrophotometrically at 490 nm.
Similar to the MTT assay, the MTS assay is a colorimetric method for determining the number of viable cells in proliferation or cytotoxicity assays. The principle of the MTS assay is the same as the MTT assay, except for the tetrazolium compound that is bio-reduced by the mitochondria of the cells, forming a coloured formazan product that is soluble (rather than insoluble for the MTT assay) in tissue culture medium. This conversion is accomplished by NADPH or NADH produced by dehydrogenase enzymes in metabolically active cells: Berridge M V. And Tan A. S. (1993) Characterisation of the cellular reduction of 3-(4,5-dimethylthiazol-2-yl)-2,5-diphenyltetrazolium bromide (MTT): Subcellular localisation, substrate dependence and involvement of mitochondrial electron transport in MTT reduction. Arch. Biochem. Biophys. 303, 474-82.
The effect of human Aβ1-42 (40 μM) on cell viability was determined in triplicate in each of the 10 MTS assays (i.e. n=30) performed in this study. All data are presented as means±SEM.
The effect of peptide analogue MP2 to protect against human Aβ42-induced toxicity was then determined using the MTS assay in triplicate in two separate experiments for all doses (i.e. n=6), unless otherwise specified. The effectiveness of MP2 was compared against the 15merTNP.

PS/APP transgenic mice = test: Efficacy study: i.c.v. infusion in PS/APP transgenic mice, Aβ and GFAP immunohistochemistry; assay type: in vivo; conditions: 6-month-old PS/APP mice, 28 days, vs Vehicle (PBS)
Text: Peptide analogue MP2 [Ac-Asn-Arg-Thr-Pro-Gln-Met-Leu-Lys-Arg-NH2 (SEQ ID NO:2)] was delivered directly into the brain by i.c.v administration. For i.c.v infusion into the cerebrospinal fluid, a cannula is inserted into the right lateral ventricle of the brain (antero-posterior: −0.3 mm; medium-line: −1 mm; dorso-ventral: −2.2 mm) of 3-month and 6-month old PS/APP transgenic mice using a Kopf (Tujunga, Calif.) stereotaxic instrument (Permanne et al., 2002 “Reduction of amyloid load and cerebral damage in a transgenic mouse model of Alzheimer's disease by treatment with a β-sheet breaker peptide” FASEB J.).
The coordinates are measured from the Bregma and the surface of the skull according to the brain atlas of Franklin and Paxinos (The Mouse Brain in Stereotaxic Coordinates (1997) Academic Press, San Diego). […]
For immunohistochemistry, tissue sections are cut and series of sections processed for peroxidase immunohistochemistry with antibodies specific for beta amyloid (1-42) and astrocytic activation (GFAP). […] Reactive astrocytes (forming a halo around Aβ deposits) were detected using antibody GFAP (1:500 dilution in DAKO antibody diluent; polyclonal, DAKO); Aβ detected using affinity purified WO2 antibody (1:10,000 dilution in Tris buffer (pH 7.6); raised against amino acid residues 5-8 of human Aβ, monoclonal). […]

human Aβ42 = test: MTS cell viability assay of MP2 analogues, cells treated with human Aβ42 (20 μM); assay type: cell-based; conditions: peptide 80-400 μM
Procedure: FIG. 7 illustrates the effect of various peptide analogues of the peptide analogue of SEQ ID NO:2 on cell viability associated with human Aβ1-42. Cells were treated with human Aβ42 peptide (20 μM) in the absence or presence of increasing doses of MP2, MP4, MP5 or MP6 (n=6, for each peptide). Cell viability was assessed by the MTS assay.
Cells were treated with human Aβ42 peptide (20 μM) in the absence or presence of increasing doses of MP2, MP4, MP5 or MP6 (n=6, for each peptide). Cell viability was assessed by the MTS assay.

Aβ = Aβ (Homo sapiens, UniProt P05067); test: Copper-induced Aβ oligomer generation (SDS-PAGE, WO2 immunoblot); assay type: biochemical; conditions: Aβ 5 uM, Cu+2 25 μM, 0-1000 μM peptide, 37 C, 24 hours; vs reverse peptide control
Sequence of Aβ (P05067 672-713 limits assumed): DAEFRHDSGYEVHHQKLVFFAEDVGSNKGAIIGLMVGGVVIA
Procedure: Incubation of Aβ with copper generates cross-linked oligomeric species (Atwood et al., 2000: Cell Mol Biol, 46: 777-783; Atwood et al., 2004: Biochemistry, 43: 560-568). In this experiment, Aβ (5 uM) is incubated with Cu+2 (25 μM) and 0-1000 μM of the modified peptides at 37 C for 24 hours. After the incubation period, 20 ng is loaded onto an SDS-PAGE gel and immunoblotted with WO2 antibody. Compared to the reverse peptide control, all the modified peptides inhibited the generation of Aβ oligomers at various concentration.

Substance: Ac-NRTPQMLKR-NH2 [MP2, Ac-Asn-Arg-Thr-Pro-Gln-Met-Leu-Lys-Arg-NH2]
- maximum reduction in cell toxicity associated with human Aβ1-42 (M17 Neuroblastoma cells; Aβ1-42 40 μM): around 15%
- effect on cell death associated with human Aβ1-42 (M17 Neuroblastoma cells; peptide concentration ≧200 μM, P<0.05): significantly reduced cell death
- effect on cell death associated with human Aβ1-42 (M17 Neuroblastoma cells; peptide concentrations ≦80 μM): no effect
- reduction in the estimated total number of Aβ immunoreactive deposits (PS/APP transgenic mice; 60 nmoles daily i.c.v.): 26.4%
- total number of GFAP immunoreactive halos (PS/APP transgenic mice; 60 nmoles/day i.c.v.): reduction in the total number of GFAP immunoreactive halos, although significance was only reached in the middle and posterior cortical regions
- cell viability following treatment with human Aβ42 (human Aβ42): significantly increased
- inhibition of Aβ oligomer formation (Aβ): most potent
